From US8859580B2 (Boehringer Ingelheim International GmbH, priority 2007, dated 2014)

molecular target: T1, 11β-HSD1 (Homo sapiens, UniProt P28845); test: In vitro inhibition of 11β-HSD1, HTRF detection of cortisol generated from cortisone by human liver microsomes; format: biochemical; settings: 11β-HSD IC50 (nM), 1 hour at 37° C., pH 6.0, NADPH 200 μM, cortisone 80 nM, inhibition relative to carbenoxolone signal
T1 construct: detecting cortisol generated from cortisterone by human liver microsomes; from tissue; host or cells: human liver microsomes
Outline: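 Cortisol formed from cortisone by human liver microsomes quantified by competitive HTRF immunoassay (XL665-cortisol, Eu-cryptate anti-cortisol antibody), 2 h detection, Em665/Em615 ratio converted via cortisol calibration curve. Percent inhibition relative to carbenoxolone signal; IC50 from curves.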

T1 sequence (P28845 whole entry): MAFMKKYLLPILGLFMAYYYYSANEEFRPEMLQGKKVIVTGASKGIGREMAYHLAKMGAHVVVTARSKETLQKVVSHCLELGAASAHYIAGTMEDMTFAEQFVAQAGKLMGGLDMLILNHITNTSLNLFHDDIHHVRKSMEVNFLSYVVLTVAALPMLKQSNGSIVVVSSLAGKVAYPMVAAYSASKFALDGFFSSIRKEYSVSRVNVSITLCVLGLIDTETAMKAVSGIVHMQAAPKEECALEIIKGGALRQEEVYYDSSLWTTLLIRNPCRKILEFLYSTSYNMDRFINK

| SMILES | IC50 [nM] |
| --- | --- |
| COc1cccc2c1C[C@H]1N(C(=O)c3ccoc3C)CC[C@]2(C)C1(C)C [Example 104, [(2R,6S)-10-Methoxy-6,11,11-trimethyl-l,2,5,6-tetrahydro-4H-2,6-methano-benzo[d]azocin-3-yl]-(2-methyl-furan-3-yl)-methanone] | 1390 |
| C[C@@H]1[C@H]2Cc3cc(C#N)ccc3[C@]1(C)CCN2C(=O)c1ccc2nc[nH]c2c1 [Example 227, (2R,6R,11S)-3-(3H-Benzoimidazole-5-carbonyl)-6,11-dimethyl-1,2,3,4,5,6-hexahydro-2,6-methano-benzo[d]azocine-9-carbonitrile] | 25 |
| Cn1cc(C(=O)N2CC[C@@]3(C)c4ccccc4C[C@@H]2C3(C)C)c2ccccc21 [Example 256, (1-Methyl-1H-indol-3-yl)-[(2R,6S)-6,11,11-trimethyl-1,2,5,6-tetrahydro-4H-2,6-methano-benzo[d]azocin-3-yl]-methanone] | 222 |
| Cc1nc2cc(C(=O)N3CC[C@@]4(C)c5cccc(O)c5C[C@@H]3C4(C)C)ccc2c(=O)[nH]1 [Example 34, 7-[(2R,6S)-10-Hydroxy-6,11,11-trimethyl-1,2,5,6-tetrahydro-4H-2,6-methano-benzo[d]azocine-3-carbonyl]-2-methyl-3H-quinazolin-4-one] | 3880 |
| C[C@@H]1[C@H]2Cc3ccc(C#N)cc3[C@]1(C)CCN2C(=O)c1ccc2nc[nH]c2c1 [Example 84, (2R,6R,11S)-3-(3H-Benzoimidazole-5-carbonyl)-6,11-dimethyl-1,2,3,4,5,6-hexahydro-2,6-methano-benzo[d]azocine-8-carbonitrile] | 139 |
| CC1(C)[C@H]2Cc3c(O)cccc3[C@]1(C)CCN2C(=O)c1ccc(C#N)cc1 [Example 13] | 1610 |
| CNC(=O)c1cccc(C(=O)N2CC[C@@]3(C)c4cccc(O)c4C[C@@H]2C3(C)C)c1 [Example 39, 3-[(2R,6S)-10-Hydroxy-6,11,11-trimethyl-1,2,5,6-tetrahydro-4H-2,6-methano-benzo[d]azocine-3-carbonyl]-N-methyl-benzamide] | 1590 |
| CC1(C)[C@H]2Cc3ccccc3[C@]1(C)CCN2C(=O)c1cc(Cl)c(O)c(Cl)c1 [Example 320, (3,5-Dichloro-4-hydroxy-phenyl)-[(2R,6S)-6,11,11-trimethyl-1,2,5,6-tetrahydro-4H-2,6-methano-benzo[d]azocin-3-yl]-methanone] | 165 |
| CC1(C)[C@H]2Cc3ccccc3[C@]1(C)CCN2C(=O)c1ccc(N)c(F)c1 [Example 296, (4-Amino-3-fluoro-phenyl)-[(2R,6S)-6,11,11-trimethyl-1,2,5,6-tetrahydro-4H-2,6-methano-benzo[d]azocin-3-yl]-methanone] | 32 |
| CC1(C)[C@H]2Cc3ccccc3[C@]1(C)CCN2C(=O)c1ccc(C(O)(C(F)(F)F)C(F)(F)F)cc1 [Example 339, [4-(2,2,2-Trifluoro-1-hydroxy-1-trifluoromethyl-ethyl)-phenyl]-[(2R,6S)-6,11,11-trimethyl-1,2,5,6-tetrahydro-4H-2,6-methano-benzo[d]azocin-3-yl]-methanone] | 1270 |
| COc1ccc2c(c1)[C@]1(C)CCN(C(=O)c3ccccc3[N+](=O)[O-])[C@H](C2)[C@@H]1C [Example 108, [(2R,6R,11R)-8-Methoxy-6,11-dimethyl-1,2,5,6-tetrahydro-4H-2,6-methano-benzo[d]azocin-3-yl]-(2-nitro-phenyl)-methanone] | 140 |
| C[C@@H]1[C@H]2Cc3ccc(C(=O)O)cc3[C@]1(C)CCN2C(=O)c1ccc2nc[nH]c2c1 [Example 151, (2R,6R,11S)-3-(3H-Benzoimidazole-5-carbonyl)-6,11-dimethyl-1,2,3,4,5,6-hexahydro-2,6-methano-benzo[d]azocine-8-carboxylic acid] | 426 |
| CC1(C)[C@H]2Cc3c(O)cccc3[C@]1(C)CCN2C(=O)c1ccc(CN2CCC(O)C2)cc1 (stereo partly drawn) [Example 188, [4-(3-Hydroxy-pyrrolidin-1-ylmethyl)-phenyl]-[(2R,6S)-10-hydroxy-6,11,11-trimethyl-1,2,5,6-tetrahydro-4H-2,6-methano-benzo[d]azocin-3-yl]-methanone] | 2920 |
| CCCNC(=O)c1ccc(C(=O)N2CC[C@@]3(C)c4cccc(O)c4C[C@@H]2C3(C)C)cc1 [Example 171, 4-[(2R,6S)-10-Hydroxy-6,11,11-trimethyl-1,2,5,6-tetrahydro-4H-2,6-methano-benzo[d]azocine-3-carbonyl]-N-propyl-benzamide] | 1650 |
| C[C@@H]1[C@H]2Cc3ccc(C(N)=O)cc3[C@]1(C)CCN2C(=O)c1ccc2nc[nH]c2c1 [Example 157, (2R,6R,11S)-3-(3H-Benzoimidazole-5-carbonyl)-6,11-dimethyl-1,2,3,4,5,6-hexahydro-2,6-methano-benzo[d]azocine-8-carboxylic acid amide] | 335 |
| CC1(C)C(=O)Nc2ccc(C(=O)N3CC[C@@]4(C)c5ccccc5C[C@@H]3C4(C)C)cc21 [Example 308, 3,3-Dimethyl-5-[(2R,6S)-6,11,11-trimethyl-1,2,5,6-tetrahydro-4H-2,6-methano-benzo[d]azocine-3-carbonyl]-1,3-dihydro-indol-2-one] | 210 |
| CC1(C)[C@H]2Cc3ccccc3[C@]1(C)CCN2C(=O)c1ccc(N)cc1 [Example 286, (4-Amino-phenyl)-[(2R,6S)-6,11,11-trimethyl-1,2,5,6-tetrahydro-4H-2,6-methano-benzo[d]azocin-3-yl]-methanone] | 47 |
| CC1(C)[C@H]2Cc3c(O)cccc3[C@]1(C)CCN2C(=O)c1ccc(N2CCNCC2)cc1 [Example 26, [(2R,6S)-10-Hydroxy-6,11,11-trimethyl-1,2,5,6-tetrahydro-4H-2,6-methano-benzo[d]azocin-3-yl]-(4-piperazin-1-yl-phenyl)-methanone] | 2890 |
| CC(O)(c1ccc2c(c1)[C@]1(C)CCN(C(=O)c3ccc4nc[nH]c4c3)[C@H](C2)C1(C)C)C(F)(F)F (stereo partly drawn) [Example 344, (3H-Benzoimidazol-5-yl)-[(2R,6S)-6,11,11-trimethyl-8-(2,2,2-trifluoro-1-hydroxy-1-methyl-ethyl)-1,2,5,6-tetrahydro-4H-2,6-methano-benzo[d]azocin-3-yl]-methanone] | 35 |
| COc1ccc2c(c1N)[C@]1(C)CCN(C(=O)c3ccc4nc[nH]c4c3)[C@H](C2)[C@H]1C [Example 267, (3H-Benzoimidazol-5-yl)-[(2R,6R,11S)-7-amino-8-methoxy-6,11-dimethyl-1,2,5,6-tetrahydro-4H-2,6-methano-benzo[d]azocin-3-yl]-methanone] | 66 |
| COC(=O)C12CCN(C(=O)c3ccc4ncsc4c3)C(Cc3ccc(O)cc31)C2 (stereo not drawn) [Example 94, 3-(Benzothiazole-6-carbonyl)-8-hydroxy-2,3,4,5-tetrahydro-1H-2,6-methano-benzo[d]azocine-6-carboxylic acid methyl ester] | 6720 |
| C[C@@H]1[C@H]2Cc3ccc(-c4ccncn4)cc3[C@]1(C)CCN2C(=O)c1ccc2nc[nH]c2c1 [Example 264, (3H-Benzoimidazol-5-yl)-[(2R,6R,11S)-6,11-dimethyl-8-pyrimidin-4-yl-1,2,5,6-tetrahydro-4H-2,6-methano-benzo[d]azocin-3-yl]-methanone] | 78 |
| CC1(C)[C@H]2Cc3c(O)cccc3[C@]1(C)CCN2C(=O)c1ccc(CN2CCC(O)CC2)cc1 [Example 190, [4-(4-Hydroxy-piperidin-1-ylmethyl)-phenyl]-[(2R,6S)-10-hydroxy-6,11,11-trimethyl-1,2,5,6-tetrahydro-4H-2,6-methano-benzo[d]azocin-3-yl]-methanone] | 1650 |
| CN(C)C(=O)c1cccc(C(=O)N2CC[C@@]3(C)c4cccc(O)c4C[C@@H]2C3(C)C)c1 [Example 38, 3-[(2R,6S)-10-Hydroxy-6,11,11-trimethyl-1,2,5,6-tetrahydro-4H-2,6-methano-benzo[d]azocine-3-carbonyl]-N,N-dimethyl-benzamide] | 1440 |
| CC12CCN(C(=O)c3ccc4[nH]cnc4c3)C(Cc3cccc(-c4cccnc4)c31)C2(C)C (stereo not drawn) [Example 309, (1H-Benzoimidazol-5-yl)-(6,11,11-trimethyl-7-pyridin-3-yl-1,2,5,6-tetrahydro-4H-2,6-methano-benzo[d]azocin-3-yl)-methanone] | 184 |
| CC1(C)[C@H]2Cc3c(O)cccc3[C@]1(C)CCN2C(=O)c1ccccc1 [Example 1, [(2R,6S)-10-Hydroxy-6,11,11-trimethyl-1,2,5,6-tetrahydro-4H-2,6-methano-benzo[d]azocin-3-yl]-phenyl-methanone] | 285 |
| CC1(C)[C@H]2Cc3c(O)cccc3[C@]1(C)CCN2C(=O)c1ccc(CN2CCOCC2=O)cc1 [Example 207, 4-[(2R,6S)-4-(10-Hydroxy-6,11,11-trimethyl 1,2,5,6-tetrahydro-4H-2,6-methano-benzo[d]azocine-3-carbonyl)-benzyl]-morpholin-3-one] | 224 |
| CC(=O)Nc1ccc(C(=O)N2CC[C@@]3(C)c4cccc(O)c4C[C@@H]2C3(C)C)cc1F [Example 27, N-{2-Fluoro-4-[(2R,6S)-10-hydroxy-6,11,11-trimethyl-1,2,5,6-tetrahydro-4H-2,6-methano-benzo[d]azocine-3-carbonyl]-phenyl}-acetamide] | 629 |
| CC1(C)[C@H]2Cc3c(O)cccc3[C@]1(C)CCN2C(=O)c1ccc(C(N)=O)cc1 [Example 3, 4-[(2R,6S)-10-Hydroxy-6,11,11-trimethyl-1,2,5,6-tetrahydro-4H-2,6-methano-benzo[d]azocine-3-carbonyl]benzamide] | 85 |
| Cc1cc2c(cc1O)C[C@H]1N(C(=O)c3ccc4nc[nH]c4c3)CC[C@]2(C)C1(C)C (stereo in doubt) [Example 67, (3H-Benzoimidazol-5-yl)-[(2R,6S)-9-hydroxy-6,8,11,11-tetramethyl-1,2,5,6-tetrahydro-4H-2,6-methano-benzo[d]azocin-a 3-yl]-methanone] | 32 |
